Source: patent US5591648A, “Antibodies for mevalonic acid and methods for immunological determination of mevalonic acid by using them” (Ono Pharmaceutical Co., Ltd., priority 1993, dated 1997)

Columns and labels:
Format in all cases: binding
[1] = biological target: mouse polyclonal antibody KLH-(12)M for mevalonic acid; assay: Enzyme immunoassay of mevalonic acid, solid phase antigen method, mouse polyclonal antibody KLH-(12)M; conditions: KLH-(12)M diluted 10^4; coated BSA-(31) 0.01 μg/ml; second antibody and blocking (B)
Experimental: (§1) An emulsion of PBS (100 μl) containing each of various antigens for immunization prepared in Example 2 (120 μg as BSA when a BSA-conjugate is used or 120 μg as KLH when a KLH-conjugate is used), and FCA (100 μl) was intraperitoneally administered to a male BALC/c mouse aged eight weeks. After about 2 weeks, the mouse was immunized five times every 2 weeks, by an emulsion of a PBS solution (100 μl) containing of the antigen for immunization and FICA (100 μl), prepared by the same procedure as hereinbefore described. After the second and fifth immunization with the antigen for immunization and FICA, the titer of antibody in blood was measured by the method shown below.
(§2) Anti-mouse IgG antibody labeled with the horse-radish peroxidase (prepared by Vector Co.), which was diluted with 50 mM PB containing 0.1% BSA 10000 times (a solution of the second antibody (B)), and which was diluted with 50 mM PB containing 0.1% OVA 10000 times (a solution of the second antibody (O)). […]
(§3) After the removal of an aqueous layer, a standard solution (100 μl) was added thereto. […] After a stopping solution (50 μl) added thereto, and the absorbance was measured at 450 nm.
(§4) On all mouse polyclonal antibody, standard calibration curves were made by platting B/B0 calculated from the measured absorbance.

[2] = biological target: mouse polyclonal antibody KLH-(39)M for mevalonic acid; assay: Enzyme immunoassay of mevalonic acid, solid phase antigen method, mouse polyclonal antibody KLH-(39)M; conditions: KLH-(39)M diluted 3 × 10^4; coated BSA-(12) 0.01 μg/ml; second antibody and blocking (B)
Experimental: as §1, §2, §3, §4

[3] = biological target: mouse polyclonal antibody KLH-(53)M for mevalonic acid; assay: Enzyme immunoassay of mevalonic acid, solid phase antigen method, mouse polyclonal antibody KLH-(53)M; conditions: KLH-(53)M diluted 5 × 10^2; coated BSA-(39) 1 μg/ml; second antibody and blocking (B)
Experimental: as §1, §2, §3, §4

[4] = biological target: mouse polyclonal antibody BSA-(19)M for mevalonic acid; assay: Enzyme immunoassay of mevalonic acid, solid phase antigen method, mouse polyclonal antibody BSA-(19)M; conditions: BSA-(19)M diluted 2 × 10^3; coated KLH-(31) 0.01 μg/ml; second antibody and blocking (O)
Experimental: as §1, §2, §3, §4

[5] = biological target: mouse polyclonal antibody KLH-(45)M for mevalonic acid; assay: Enzyme immunoassay of mevalonic acid, solid phase antigen method, mouse polyclonal antibody KLH-(45)M; conditions: KLH-(45)M diluted 2 × 10^3; coated BSA-(12) 0.1 μg/ml; second antibody and blocking (B)
Experimental: as §1, §2, §3, §4

[6] = biological target: mouse monoclonal antibody MHM-9H (IgG2b, k; hybridoma FERM BP-4524) for mevalonic acid; assay: Cross-reaction of mouse monoclonal antibody with analogues of mevalonic acid (enzyme immunoassay, solid phase first antibody); conditions: for IC50: antibody MHM-9H coated 7 μg/ml, peroxidase-labeled antigen (18), overnight at 4° C., absorbance 450 nm; for cross-reactivity: antibody MHM-9H, relative to mevalonic acid = 100
Experimental: A solution of antibody (prepared in example 10 as hereinafter defined) was placed with 100 μl portions in a polystyrene 96 wells micro plate (prepared by NUNC Co.). The micro plate was allowed to stand for 1.5 hours at room temperature to be fixed. After the removal of an aqueous layer, 50 mM PB (400 μl) containing 0.5% BSA was added to block the inside of a wall of wells for 1 hour at room temperature.
After the removal of an aqueous layer, 50 mM PB (100 μl) containing mevalonic acid analogues of various concentrations was added. A solution of labeled antigen (prepared in example 10 as hereinafter defined) was added thereto with 100 μl portions and then the mixture was allowed to stand overnight at 4° C. After the removal of an aqueous layer, the dishes were washed twice with 50 mM PB (300 μl) containing 0.05% Tween 20. The substrate solution (prepared in example 9 as hereinafter, 250 μl) was added thereto and then the mixture was reacted for 15 minutes at room temperature. After the reaction was stopped by the addition of 1N sulfuric acid (50 μl), and the absorbance was measured at 450 nm.
A conjugate (18) of mevalonic acid derivative and a specer (prepared) in example 1(b). 175 nmol) was added to PBS (175 μl) containing a horse-radish peroxidase (prepared by Toyobo, 350 μg) and then the mixture was reacted for 2 hours at room temperature and then overnight at 4° C. The reaction mixture was dialyzed by a mixture of 1,4-dioxane and PBS (1:1) and then by PBS. An obtained enzyme-labeled antigen was diluted with 50 mM PB containing 0.1% BSA to become 1.25 ng/100 μl (as peroxidase protein).
Monoclonal antibody of the present invention, MHM-9H (prepared in example 5), was prepared by 50 mM PB to become 7 μg/ml.

[7] = biological target: mouse polyclonal antibody KLH-(31)M for mevalonic acid; assay: Enzyme immunoassay of mevalonic acid, solid phase antigen method, mouse polyclonal antibody KLH-(31)M; conditions: KLH-(31)M diluted 10^5; coated BSA-(12) 0.01 μg/ml; second antibody and blocking (B)
Experimental: as §1, §2, §3, §4

[8] = tested on: rabbit polyclonal antibody KLH-(12)R for mevalonic acid; assay: Cross-reaction of rabbit polyclonal antibody with analogues of mevalonic acid (radioimmunoassay, competition with R-[2-14C] mevalonic acid); conditions: for IC50: competition with 400 Bq R-[2-14C] mevalonic acid, overnight at 4° C., polyethylene glycol precipitation
Experimental: After about 4 weeks, the rabbit was sensitized four times for each 2 weeks, by an emulsion of a PBS solution (500 μl) containing of the antigen for immunization prepared by the same procedure as hereinbefore described, and FICA (500 μl).
Blood was collected from the rabbit and to the serum prepared (50 μl) were added successively water (450 μl), 0.5% γ-globulin (80 μl) and a saturated aqueous solution of ammonium sulfate (580 μl), and then the mixture was centrifuged. The precipitation was dissolved into 50 mM PB (200 μl), and 50 mM PB (100 μl) containing R-[2-^14 C] mevalonic acid (400 Bq) was added thereto and the mixture was reacted overnight at 4° C. To the mixture was added successively 0.1M PB (200 μl) containing 0.5% bovine γ-globulin and 30% polyethylene glycol 6000 (register trademark, Wako Pure Chem Ind. Ltd. 600 μl), and then the mixture was centrifuged. Radioactivity of the precipitation was measured. […] This blood serum was called as polyclonal antibody, KLH-(12)R.
To 50 mM PB containing 400 Bq of R-[2-^14 C] mevalonic acid (100 μl) was added successively a solution of antibody (the mixture of the polyclonal antibody KLH-(12)R of the present invention, water, (0.5% γ-globulin and a saturated aqueous solution of ammonium sulfate in the ratio of 0.5:4.5:0.8:5.8 was centrifugalized, and the obtained precipitation was dissolved into a solution of 50 mM PB of four times as much as amount of the used polyclonal antibody, 100 μl) and a standard solution of mevalonic acid analogous compound as indicated following table (a solution of 50 mM PB, 100 μl) in the polystyrene tube, and then the mixture was allowed to stand overnight at 4° C. To the reaction mixture was added a solution of 0.5% γ-globulin (200 μl), and further added 30% polyethylene glycol 6000 (600 μl), and then the mixture was centrifuged. The precipitation was dissolved into 0.1N aqueous solution of sodium hydroxide, and added the liquid of scintillator (1 ml), and measured radioactivity.

[9] = biological target: mouse polyclonal antibody KLH-(18)M for mevalonic acid; assay: Enzyme immunoassay of mevalonic acid, solid phase antigen method, mouse polyclonal antibody KLH-(18)M; conditions: KLH-(18)M diluted 2 × 10^3; coated BSA-(31) 0.01 μg/ml; second antibody and blocking (B)
Experimental: as §1, §2, §3, §4

[10] = relative to mevalonic acid = 100

| IC50 [1] | IC50 [2] | IC50 [3] | IC50 [4] | IC50 [5] | IC50 [6] | cross-reactivity [6] | IC50 [7] | IC50 [8] | IC50 [9] | Structure (SMILES) | cross-reactivity [8, 10] | cross-reactivity ([8]; relative to mevalonic acid = 100, listed as glutaric acid) |
| --- | --- | --- | --- | --- | --- | --- | --- | --- | --- | --- | --- | --- |
| 0.5 μg/test | 0.1 μg/test | 6.0 μg/test | 3.6 μg/test | 4.0 μg/test | 0.0025 μg/test | 100% | 0.7 μg/test | 0.065 μg/test | 0.3 μg/test | C[C@@](O)(CCO)CC(=O)O [Mevalonic acid] | 100% | – |
| – | – | – | – | – | > 250 μg/test | < 0.001% | – | 1000 μg/test | – | CC(CC(=O)O)CC(=O)O [3-Methylglutaric acid] | 0.0065% | – |
| – | – | – | – | – | > 250 μg/test | < 0.001% | – | 500 μg/test | – | CC(O)(CC(=O)O)CC(=O)O [3-Hydroxy-3-methylglutaric acid] | 0.013% | – |

| Structure (SMILES) | IC50 [1] | IC50 [2] | IC50 [3] | IC50 [4] | IC50 [5] | IC50 [6] | cross-reactivity [6] | IC50 [7] | IC50 [8] | IC50 [9] | cross-reactivity [8, 10] | cross-reactivity ([8]; relative to mevalonic acid = 100, listed as glutaric acid) |
| --- | --- | --- | --- | --- | --- | --- | --- | --- | --- | --- | --- | --- |
| O=C(O)CCCC(=O)O [Glutaric acid] | – | – | – | – | – | > 250 μg/test | < 0.001% | – | > 6500 μg/test | – | < 0.001% | less than 0.001% |
